These results are taken from patent publication US20080027098A1, “Derivatives of alpha-phenylthiocarboxylic and alpha-phenyloxy-carboxylic acids useful for the treatment of diseases responding to PPARalpha activation” (SIGMA-TAU INDUSTRIE FARMACEUTICHE RIUNITE S.p.A., priority 2002, published 2008).

Marks after values point to notes of the source that are not given here.

Data set [1] concerns high-cholesterol diet-fed CD-1 mice. The experiment in a line: Hypolipidemic activity in high-cholesterol diet-fed CD-1 mice. It counts as in vivo. The note with it: 16 days, post-absorptive state; for P-triglycerides: control 49 ± 3; for P-Cholesterol: control 350 ± 28. Here is the method:
High-Cholesterol Diet-Fed CD-1 Mice
ST2518, fenofibrate, rosiglitazone and pioglitazone (PPARγ agonists) were administered by gavage, for 16 days, to CD-1 mice fed with high-cholesterol diet, and plasma parameters were evaluated in post-absorptive state.

Data set [2] concerns standard diet-fed c57bl/6j mice. The experiment in a line: Hypolipidemic activity in standard diet-fed c57bl/6j mice. It counts as in vivo. The note with it: 15 days, post-absorptive state, control 53.8 ± 4.2. The method, then:
Standard Diet-Fed c57bl/6j Mice
ST2518 was evaluated in comparison with fenofibrate also in c57b1/6j mice fed with standard diet (Table 5).

Data set [3] relates to hAPO A I transgenic mice. The experiment in a line: Plasma lipid parameters in hAPO A I transgenic mice. It counts as in vivo. The note with it: 16 days, post-absorptive state; for P-triglycerides: control 75 ± 6. Here is the method:
ST2518, fenofibrate and rosiglitazone were administered by gavage for 16 days, and plasma (p) parameters were evaluated in post-absorptive state.

Data set [4] concerns db/db mice. The experiment in a line: Increase in HDL-cholesterol levels in db/db mice. It counts as in vivo. The method, then:
Increase in HDL-Cholesterol Levels in db/db Mice
In this experiment db/db mice were used in which PPARα expression is above normal (Memon et al., Endocrinology 2000, 4021-4031) and HDL-cholesterol levels are substantially elevated (Silver et al., J Biol Chem 1999, 274: 4140-4146).
The C57BL[KsJ db/db mice were acclimatised for one week in standard conditions (22±2° C.; 55±15% humidity; 15-20 air changes/hour; 12 hours light/darkness cycle with light from 7.00 a.m. to 7 p.m.) with a standard 4 RF21 diet (Mucedola). Blood samples were taken in post-absorption conditions (fasting from 8.30 a.m. to 4.30 p.m.) from the caudal vein with the aid of a Jelco 22G catheter (Johnson and Johnson). Glucose, insulin, triglyceride, cholesterol, free fatty acid and urea levels were checked in plasma for a homogeneous distribution of the mice in the treatment groups.
At the beginning of treatment the animals' body weight was checked and arrangements were made to monitor their water and feed consumption. […]
The compound tested, obtained as described in example 4 (ST 1929) was administered at the dose of 24 mg/kg in 10 ml/kg of vehicle (1% CMC containing Tween 80 0.5% in deionized H2O).
The other compounds tested were also administered at a dose equivalent to that in example 4.
Ciprofibrate, a known PPARα agonist (Varanasi et al., J Biol Chem 1996, 271: 2147-2155; Latruffe et al. Cell Biochem Biophys 2000, 32 Spring: 213-220) was administered at the dose of 20 mg/kg (Dwivedi et al., Toxicol Pathol 1989, 17: 16-26; Qi et al., Proc Natl Acad Sci USA 1999, 96: 1585-1590).
The animals were sacrificed (by decapitation) in conditions of post-absorption (fasting from 9.30 a.m. to 4.30 p.m.) 7 hours after the last treatment. The levels of a number of important lipid and carbohydrate metabolism parameters were determined in the serum.
The HDL-cholesterol levels were measured by treating the serum with phosphotungstic-acid-based precipitating reagent (ABX Diagnostics) which removes the chylomicrons, very low density and low density lipoproteins and determining the HDL-cholesterol levels in the supernatant with the aid of the Cholesterol Kit (ABX Diagnostics) and the Cobas Mira S Autoanalyzer (Roche).
In a further experiment, where the above reported ST2195 was used as reference compound, db/db mice were treated orally twice daily (8.30 a.m. and 6.30 p.m.) for 14 days with the test items (equimolar to 25 mg/kg of ST2 195) giving the following results reported in Table 3: […]

Data set [5] addresses T1, Gal4DBD/PPARαLBD (Homo sapiens, UniProt Q07869).
T1 construct: expressed in transfected cells; host or cells: COS-7 (monkey kidney fibroblasts)
T1 sequence (Q07869 239-466 limits assumed): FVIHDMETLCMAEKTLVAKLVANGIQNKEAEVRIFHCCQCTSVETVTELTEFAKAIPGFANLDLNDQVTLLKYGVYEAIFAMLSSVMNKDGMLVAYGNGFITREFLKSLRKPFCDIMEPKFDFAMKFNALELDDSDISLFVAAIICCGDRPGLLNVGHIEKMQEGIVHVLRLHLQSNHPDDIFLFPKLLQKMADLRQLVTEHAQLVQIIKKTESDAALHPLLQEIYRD
The experiment in a line: Transient transfection of COS-7 cells, Gal4DBD/PPARαLBD transactivation, CAT reporter (II method). It counts as cell-based. The note with it: read-out: percentage activation of the CAT reporter gene compared to reference compound WY-14.643 2 μM taken as 100%. From the text:
Transient Transfection of Eukaryotic Cells to Evaluate the Agonist Activity of PPARα Ligands (II Method)
An alternative transactivation system, which differs mainly in the way the receptor is positioned onto the DNA, and depending on how the event of ligand binding is translated into transcriptional activation, was used.
In this model eukaryotic cells were transiently transfected with an expression vector encoding a fusion protein between the DNA binding domain (DBD) of the yeast Gal4 transcription factor and the ligand binding domain (LBD) of the PPARα (Gal4DBD/PPARαLBD). The reporter vector containing 5 copies of the high affinity binding site for Gal4 (named UAS, upstream activating sequence) upstream of a strong viral promoter linked to the reporter gene chloramphenicol acetyltransferase (CAT), was co-transfected. This model offered some advantages, the most important of which was the absence of interference by endogenous receptors.
Besides expression and reporter vectors, cells were transfected with a control vector pCH110 that encodes the β-galactosidase enzyme to correct for differences in transfection efficiency.
A monkey kidney fibroblast cell line (COS-7) was used. Cells were co-transfected with the plasmid carrying the gene-reporter, the expression plasmid encoding the fusion protein Gal4DBD/PPARαLBD, and the control vector pCH110. Cells were then treated with increasing concentrations of test compounds and the CAT activity was measured. Untreated cells were used as control.
Monkey kidney fibroblasts (COS-7) were routinely grown in DMEM (Dulbecco's modified Eagle's medium) supplemented with 3.7 g/l sodium bicarbonate, 4 mM L-glutamine, 4.5 g/l glucose, 1 mM sodium piruvate and 10% v/v foetal bovine serum, in the presence of streptomycin 100 μg/ml and penicillin 100 U/ml.
COS-7 cells were transiently transfected by using the multi-component lipid-based FuGENE6 Transfection Reagent that complexes with and transports DNA into the cells during transfection. Cells were seeded at 1.2×10^5 cells/well, in 12-well plates, and cultured overnight at 37° C. in a 5% v/v carbon dioxide atmosphere. Two hours before transfection the culture medium was replaced by fresh serum-free medium and then transfection was performed with FuGENE6 Transfection Reagent according to the instructions of the manufacturer. Briefly, the transfection mixture containing (for each well) 0.8 μg of the expression vector, 1.6 μg of the reporter vector, 0.8 μg of the control vector and 9 μl of FuGENE6 Transfection Reagent was added directly to the cells in the presence of serum-free medium. After 5 hours the transfection medium was replaced by 1 ml of the complete culture medium with or without the test molecules at 3 different concentrations (2, 20 and 100 μM). 2 μM Wy-14,643, a known PPARα ligand, was used as positive control.
After 48 h, the cells were washed twice with 1 ml phosphate buffer (PBS) and then harvested by scraping them in TEN buffer (Tris [hydroxymethyl] aminomethane 10 mM pH 8, ethylenediamine tetraacetic acid 1 mM, pH 8, sodium chloride 0.1 M). Following centrifugation at room temperature, for 3 min at 1000 revs per minute (rpm), cells were resuspended with 60 μl of Lysis buffer (0.25M Tris-HCl, pH 8) and lysed by three rapid freeze/thaw cycles (three 5-minute cycles). Cell debris was then removed by centrifugating at 4° C., for 15 min at 15.000 revs per minute (rpm),. Glycerol (final 10% v/v) and β-mercaptoethanol (final 5 mM) were then added (final volume 75 μl) and the cell extracts were stored at −80° C. until assayed.
The CAT activity assay was performed as follows: 20 μl of cell lysate (pre-warmed at 65° C. for 10 min to deactivate internal deacetylase enzymatic activity) were added to 10 μl of 3.5 mg/ml n-butirryl-CoA, 5 μl ([…]) of [14C]-chloramphenicol and 65 μl of distilled H20 and incubated 2 h at 37° C. Reaction was blocked by adding 200 μl of the solution xylene/2,6,10,14 tetramethyl-pentadecane (in a 1:2 v/v mixture). […]

As to `CC(C)OC(=O)C(C)(C)Oc1ccc(C(=O)c2ccc(Cl)cc2)cc1` [Fenofibrate, reference compound], the P-triglycerides in data set [1] (26 mg/Kg/bid by gavage) came to 43 ± 3 mg/dL; in data set [3] (26 mg/kg/bid by gavage) it was 78 ± 6 mg/dL. This molecule came in with a P-Cholesterol in data set [1] (26 mg/Kg/bid by gavage) of 308 ± 18 mg/dL. For the same molecule, the entries for the “Triglycerides (plasma)” value in data set [2] (25 mg/kg/bid by gavage), in data set [2] (75 mg/kg/bid by gavage) and in data set [2] (125 mg/kg/bid by gavage) were 38.0 ± 2.9 Δ mg/dl, 34.4 ± 2.7 Δ mg/dl and 36.0 ± 1.2 Δ mg/dl, respectively. The “Increase in HDL/cholesterol levels (%)” value in data set [4] (24.7 mg/kg, 25 days) is “+18%”; in data set [4] (second experiment, 24.7 mg/kg, 16 days) it was “+56[…] %”.
With `COc1ccc(OC(=O)N(CC(=O)O)Cc2ccc(OCCc3nc(-c4ccccc4)oc3C)cc2)cc1` [Muraglitazar, reference compound], the “Triglycerides (plasma)” value in data set [2] (5 mg/kg/bid by gavage) came to 45.6 ± 3.4 mg/dL.
`COC(=O)C(C)(C)Sc1ccc(O)cc1` [ST1923, methyl 2-(4-hydroxyphenylthio)isobutyrate] registered a melting point of 110 to 112 °C.
Molecule `CC(C)(Sc1ccc(O)cc1)C(=O)O` [ST1981, 2-(4-hydroxyphenylthio)isobutyric acid] came in with a melting point of 152 to 154 °C.
Still for that read-out and setting: to `COC(=O)C(C)(C)Sc1ccc(OCCc2ccc3ccccc3c2)cc1` [ST2011, methyl 2-[4-[2-(2-naphthyl)ethoxy]phenyl-thio]isobutyrate] belongs 56 to 57 °C.
`COC(=O)C(C)(C)Sc1ccc(OC(=O)NCc2ccc(OC)cc2)cc1` [ST2031, methyl 2-[4-[[(4-methoxybenzyl)carbamoyl]oxy]phenylthio]isobutyrate] came in with a melting point of 64 to 65 °C. Further, the “Increase in HDL/cholesterol levels (%)” value in data set [4] (oral twice daily, dose equivalent to 24 mg of ST1929, 10 days) was “+51 ▴ %”.
`COC(=O)C(C)(C)Sc1cccc(O)c1` [ST2047, methyl 2-(3-hydroxyphenylthio)isobutyrate] showed a melting point of 41.5 to 42.5 °C.
On the same count and under the same terms, under `COC(=O)C(C)(C)Sc1cccc(OCCn2c3ccccc3c3ccccc32)c1` [ST2365, methyl 2-[3-(2-(carbazol-9-yl)ethoxy)phenyl-thio]isobutyrate] stands 101 to 103 °C; under `COC(=O)C(C)(C)Sc1ccc(OCCn2c3ccccc3c3ccccc32)cc1` [ST2387, methyl 2-[4-(2-(carbazol-9-yl)ethoxy)phenyl-thio]isobutyrate], 72 to 74 °C.
With `COC(=O)C(C)(C)Sc1cccc(OCc2ccc(-c3ccc([N+](=O)[O-])cc3)o2)c1` [ST2501, methyl 2-[3-[5-(4-nitrophenyl)furfuryl-oxy]phenylthio]isobutyrate], the melting point was in the range of 81 to 82 °C. Moreover, in data set [5] (2 μM), the activation at 2 µM was 85.7%. For the same molecule, the activation at 20 µM in data set [5] (20 μM) turned out to be 288%. For the same molecule, the activation at 100 µM in data set [5] (100 μM) was 231%.
For `COC(=O)C(C)(C)Sc1ccc(OCCc2ccc(Cl)cc2Cl)cc1` [ST2531, methyl 2-[4-(2-(2,4-dichloro-phenyl)ethoxy)phenylthio]isobutyrate], the melting point was in the range of 73 to 74 °C.
Still for that read-out and setting: under `CC(C)(Sc1ccc(OCCc2ccc(Cl)cc2)cc1)C(=O)O` [ST 2505, 2-[4-[2-(4-chlorophenyl)ethoxy]phenylthio]-2-methylpropanoic acid] stands 87 to 88 °C.
In data set [1] (20 mg/Kg/bid by gavage), `CCc1ccc(CCOc2ccc(CC3SC(=O)NC3=O)cc2)nc1` (centres unmarked) [pioglitazone] displayed a P-triglycerides of 43 ± 4 mg/dL and a P-Cholesterol of 345 ± 27 mg/dL.
Take `CN(CCOc1ccc(CC2SC(=O)NC2=O)cc1)c1ccccn1` (centres unmarked) [rosiglitazone, reference compound]: in data set [1] (5 mg/Kg/bid by gavage), the P-triglycerides amounted to 41 ± 3 mg/dL and the P-Cholesterol was determined as 354 ± 23 mg/dL. Also, in data set [3] (5 mg/kg/bid by gavage), the P-triglycerides was 74 ± 10 mg/dL. Besides, the P-hdl-cholesterol in data set [3] (5 mg/kg/bid by gavage, control 163 ± 6) was determined as 144 ± 18 mg/dL.

The term melting point denotes the temperature of the solid-liquid transition.
